The source of these data is US3939270A, “Pharmaceutical preparations containing α-aminopenicillins” (priority 1970, dated 1976).

The nature of data set [1]: hydrolysis of esters in phosphate buffer + 10% human serum. In kind it is in vitro ADME. To be noted: buffer with 10% serum; pH 7.4, 10% human serum, 10 μg/ml, 30 min, 37°C, corrected for blank; read-out: % hydrolyzed after 30 min at 37°C, phosphate buffer + 10% human serum. Here is the method: (§1) The hydrolysis of the esters of the aminopenicillins prepared according to the invention were determined in buffer solution with and without human serum being present. The esters were incubated for 30 min at 37°C at a concentration of 10 μg/ml in Sorensen's phosphate buffer (pH 7.4) and in another experiment in the same buffer containing 10 % human serum. The test solutions were extracted with ethyl acetate to remove unhydrolyzed ester and were analyzed microbiologically for their contents of aminopenicillin. Blank values were obtained by dissolving the esters in phosphate buffer at the same concentration and immediately perform the extraction. The values in the table are corrected for the blank values.

Data set [2] can be described thus: hydrolysis of esters in phosphate buffer. In kind it is in vitro ADME. Conditions: pH 7.4, 10 μg/ml, 30 min, 37°C, corrected for blank, read-out: % hydrolyzed after 30 min at 37°C, phosphate buffer. Here is the method:
as §1

The conditions of data set [3]: background statement on α-aminobenzylpenicillin; cited from earlier work.
In data set [4] the test system is P.mirabilis. The data set can be described thus: antibacterial activity, tube dilution procedure in broth, P. mirabilis. In kind it is cell-based. Conditions: Proteus mirabilis. From the text:
(§2) (termination of concentration according to the hydroxamate method; antibacterial activity determined by tube dilution procedure in broth).

Data set [5] relates to E.coli. Description: antibacterial activity, tube dilution procedure in broth, E. coli. It is filed as cell-based. Conditions: Escherichia coli.
From the text: as §2

Data set [6] relates to Staph.aur. Oxford. Description: antibacterial activity, tube dilution procedure in broth, Staph. aureus Oxford. In kind it is cell-based. Conditions: Staphylococcus aureus.
From the text: as §2

Data set [7] deals with Staph. aureus Oxford. The data set can be described thus: growth inhibition of Staph. aureus Oxford (Examples). In kind it is cell-based. Conditions: for MIC: Staphylococcus aureus, read-out: inhibited the growth of Staph. aureus Oxford at a concentration of.
The conditions of data set [8]: human, in vivo, po, 480 min. Here is the method:
The oral absorption of 1'-ethoxycarbonyloxyethyl 6-(D-α-aminophenylacetamino)penicillanate (I) and of 1'-acetoxyethyl6-(D-α-aminophenylacetamido)penicillanate (II) was studied in a cross-over experiment in 9 healthy male volunteers using 6-(D-α-aminophenylacetamido)penicillanic acid (ampicillin) as a reference. The compounds were administered in tablets with the following composition:
The amounts of the esters correspond to 250 mg of free ampicillin. The reference compound was given in a commercially available tablet (Doktacillin 0.25 g) containing 250 mg of free ampicillin. The tablets were taken on an empty stomach. Blood samples were drawn at preset intervals and analyzed for their contents of ampicillin using a microbiological essay. The following mean serum levels (in μg/ml) with standard error of the mean were found:
The mean cumulative urinary excretions after 8 hours in percentage of the dose given were: […]

In data set [9] the test system is P. mirabilis. The data set can be described thus: growth inhibition of P. mirabilis (Example 7a). In kind it is cell-based. Conditions: Proteus mirabilis; read-out: inhibited the growth of P. mirabilis at.
The subject of data set [10] is E. coli. The data set can be described thus: growth inhibition of E. coli (Example 7a). In kind it is cell-based. To be noted: Escherichia coli; read-out: inhibited the growth of E. coli at.
Data set [11] deals with E.coli. The data set can be described thus: growth inhibition of E. coli, solution test on agar. It is filed as cell-based. To be noted: Escherichia coli, read-out: inhibited the growth of E.coli at. Here is the method: (§3) The product inhibited the growth of Staph. Aureus Oxford at a concentration of 0.13 μg/ml and of E.coliat 125 μg/ml (solution test on agar) and contained in its IR-spectrum a strong absorption band at 1750 cm^-^1 showing presence of a β-lactame and an ester function.

Data set [12] relates to Staph. aureus Oxford. Description: growth inhibition of Staph. aureus Oxford, solution test on agar. In kind it is cell-based. To be noted: Staphylococcus aureus, read-out: inhibited the growth of Staph. Aureus Oxford at a concentration of. Here is the method:
as §3

≈ marks a conversion by molar mass, not a printed value.

For the molecule `CCCCC(=O)OC(C)OC(=O)[C@@H]1N2C(=O)[C@@H](NC(=O)[C@H](N)c3ccccc3)[C@H]2SC1(C)C` (stereo partly drawn) [10 --CH--OCOC4 H9, 1'-valeryloxy-ethyl 6-(D-α-aminophenylacetamido)penicillanate], the metabolised at 0.5 h in data set [1] stood at 14.3%. Besides, the degraded at 0.5 h in data set [2] was 4.9%.

As for `CC(OC(=O)C(C)C)OC(=O)[C@@H]1N2C(=O)[C@@H](NC(=O)[C@H](N)c3ccccc3)[C@H]2SC1(C)C` (stereo partly drawn) [10 --CH--OCOCH(CH3)2, 1'-isobutyroxy-ethyl 6-(D-α-aminophenylacetamido)penicillanate], in [1], the metabolised at 0.5 h came to 12.1%. Moreover, the degraded at 0.5 h in data set [2] came to 5.2%.

In the case of `CC1(C)S[C@@H]2[C@H](NC(=O)[C@H](N)c3ccccc3)C(=O)N2[C@H]1C(=O)O` [Ampicillin, 6-(D-α-aminophenylacetamido)penicillanic acid], the oral absorption result in data set [3] is on record as “orally absorbed relatively incompletely”.

With `CCOC(=O)NCOC(=O)[C@@H]1N2C(=O)[C@@H](NC(=O)[C@H](N)c3ccccc3)[C@H]2SC1(C)C` [Ethylcarbamatomethylester, ethoxycarbonylaminomethyl 6-(D-α-aminophenylacetamido)penicillanate], the MIC in [4] came to 6.25 µg/mL (≈ 13.9 µM); in data set [5], 12.5 µg/mL (≈ 27.7 µM); in data set [6], 0.16 µg/mL (≈ 0.355 µM). For the same molecule, in data set [1], the metabolised at 0.5 h stood at 15.2%. Also, the degraded at 0.5 h in data set [2] is 7.1%.

Turning to `CC(=O)OC(C)OC(=O)[C@@H]1N2C(=O)[C@@H](NC(=O)C(N)CCC(C)C)[C@H]2SC1(C)C` (stereo partly drawn) [Example 5, 1'-Acetoxyethyl α-amino-δ-methylpentylpenicillinate], the metabolised at 0.5 h in [1] turned out to be 15.3%. Besides, in [7], the MIC was 0.63 µg/mL (≈ 1.47 µM). In [2], the degraded at 0.5 h turned out to be 6%.

As to `CC(=O)OC(C)OC(=O)[C@@H]1N2C(=O)[C@@H](NC(=O)[C@H](N)c3ccccc3)[C@H]2SC1(C)C` (stereo partly drawn) [Example 7, 1'-Acetoxyethyl 6-(D-α-aminophenylacetamido)penicillanate], the “mean cumulative urinary excretion after 8 hours in percentage of the dose given” value in [8] is recorded as 53.7 ± 4.9%. Besides, the metabolised at 0.5 h in data set [1] was determined as 17%. In addition, the results for the MIC in data set [7], in data set [9] and in [10] were 0.32 µg/mL (≈ 0.735 µM), 50 µg/mL (≈ 115 µM) and 50 µg/mL (≈ 115 µM), respectively. Also, the “inhibited the growth of Staph. aureus Oxford at a concentration of” value in [7] (listed as Example 7b) was found to be 0.25 µg/mL. In addition, the degraded at 0.5 h in [2] was 7%.

With `CCC(=O)OC(C)OC(=O)[C@@H]1N2C(=O)[C@@H](NC(=O)[C@H](N)c3ccccc3)[C@H]2SC1(C)C` (stereo partly drawn) [Example 9, 1'-Propionyloxyethyl 6-(D-α-aminophenylacetamido) penicillanate], the metabolised at 0.5 h in data set [1] came to 17.6%. Also, the MIC in data set [7] was 0.63 µg/mL (≈ 1.4 µM). The degraded at 0.5 h in data set [2] was 6.8%.

Consider `COC(=O)OCOC(=O)[C@@H]1N2C(=O)[C@@H](NC(=O)[C@H](N)c3ccccc3)[C@H]2SC1(C)C` [Example 12, Methoxycarbonyloxymethyl 6-(D-α-aminophenylacetamido) penicillanate], for which the MIC worked out at 6.25 µg/mL (≈ 14.3 µM) in [4], 0.13 µg/mL (≈ 0.297 µM) in data set [7], 25 µg/mL (≈ 57.1 µM) in data set [5] and 0.16 µg/mL (≈ 0.366 µM) in [6]. Moreover, the metabolised at 0.5 h in [1] was determined as 77.9%. For the same molecule, the degraded at 0.5 h in data set [2] worked out at 24.8%.

Turning to `CCOC(=O)OC(C)OC(=O)[C@@H]1N2C(=O)[C@@H](NC(=O)[C@H](N)c3ccccc3)[C@H]2SC1(C)C` (stereo partly drawn) [Example 15, 1'-Ethoxycarbonyloxyethyl 6-(D-α-aminophenylacetamido) penicillanate], the “mean cumulative urinary excretion after 8 hours in percentage of the dose given” value in data set [8] is 53.4 ± 2.5%. In [1], the metabolised at 0.5 h worked out at 57.1%. Besides, the figures for the MIC in data set [7], in data set [11] and in data set [12] were 0.13 µg/mL (≈ 0.279 µM), 125 µg/mL (≈ 269 µM) and 0.13 µg/mL (≈ 0.279 µM), respectively. Further, the degraded at 0.5 h in data set [2] came to 3.8%.

In the case of `CCOC(=O)OCOC(=O)[C@@H]1N2C(=O)[C@@H](NC(=O)[C@H](N)c3ccccc3)[C@H]2SC1(C)C` [Example 17, Ethoxycarbonyloxymethyl 6-(D-α-aminophenylacetamido) penicillanate], in data set [1], the metabolised at 0.5 h is 64.7%. Moreover, the MIC in data set [7] worked out at 0.05 µg/mL (≈ 0.111 µM). Also, in data set [2], the degraded at 0.5 h amounted to 13.3%.

On to `CCCOC(=O)OCOC(=O)[C@@H]1N2C(=O)[C@@H](NC(=O)[C@H](N)c3ccccc3)[C@H]2SC1(C)C` [Example 18, Propoxycarbonyloxymethyl 6-(D-α-aminophenylacetamido) penicillanate], for which the metabolised at 0.5 h in data set [1] stood at 53.7%. Also, in [7], the MIC is 0.05 µg/mL (≈ 0.107 µM). The degraded at 0.5 h in data set [2] amounted to 14.5%.

`CC(C)OC(=O)OCOC(=O)[C@@H]1N2C(=O)[C@@H](NC(=O)[C@H](N)c3ccccc3)[C@H]2SC1(C)C` [Example 19, Isopropoxycarbonyloxymethyl 6-(D-α-aminophenylacetamido)penicillanate]: in [1], the metabolised at 0.5 h turned out to be 68.4%. In [7], the MIC is 0.05 µg/mL (≈ 0.107 µM). In addition, the degraded at 0.5 h in data set [2] was 15.2%.

For `CCCCOC(=O)OCOC(=O)[C@@H]1N2C(=O)[C@@H](NC(=O)[C@H](N)c3ccccc3)[C@H]2SC1(C)C` [Example 20, Butoxycarbonyloxymethyl 6-(D-α-aminophenylacetamido) penicillanate], the metabolised at 0.5 h in data set [1] was determined as 41.1%. For the same molecule, the MIC in data set [7] is 0.05 µg/mL (≈ 0.104 µM). Besides, the degraded at 0.5 h in data set [2] was determined as 13%.

In the case of `CC(=O)OC(C)OC(=O)[C@@H]1N2C(=O)[C@@H](NC(=O)[C@H](N)c3cccc(F)c3)[C@H]2SC1(C)C` (stereo partly drawn) [Example 22, 1'-acetoxy-ethyl 6-(D-α-amino-m-fluorophenylacetamido) penicillanate], the metabolised at 0.5 h in data set [1] was 16.4%. Besides, the MIC in [7] stood at 0.25 µg/mL (≈ 0.551 µM). In addition, the degraded at 0.5 h in [2] came out at 3.1%.

`CCOC(=O)OC(C)OC(=O)[C@@H]1N2C(=O)[C@@H](NC(=O)[C@H](N)c3cccc(F)c3)[C@H]2SC1(C)C` (stereo partly drawn) [Example 23, 1'-Ethyloxycarbonyloxyethyl 6-(D-α-amino-m-fluorophenylacetamido)penicillanate]: in data set [1], the metabolised at 0.5 h stood at 37.7%. For the same molecule, the degraded at 0.5 h in data set [2] is 2.6%.

For `CC(=O)OC(C)OC(=O)[C@@H]1N2C(=O)[C@@H](NC(=O)[C@H](N)c3ccc(F)cc3)[C@H]2SC1(C)C` (stereo partly drawn) [Example 24, 1'-Acetoxyethyl 6-(D-α-amino-p-fluorophenylacetamido)penicillanate], the metabolised at 0.5 h in data set [1] was 14.3%. Further, the MIC in data set [7] is 0.25 µg/mL (≈ 0.551 µM). Besides, the degraded at 0.5 h in data set [2] was found to be 9%.

In the case of `CCOC(=O)OC(C)OC(=O)[C@@H]1N2C(=O)[C@@H](NC(=O)[C@H](N)c3ccc(F)cc3)[C@H]2SC1(C)C` (stereo partly drawn) [Example 25, 1'-Ethyloxycarbonyloxyethyl 6-(D-α-amino-p-fluorophenylacetamido)penicillanate], the metabolised at 0.5 h in data set [1] came out at 20.2%. The MIC in [7] came to 0.25 µg/mL (≈ 0.517 µM). Further, in data set [2], the degraded at 0.5 h was found to be 1.4%.

Take `CC(=O)OC(C)OC(=O)[C@@H]1N2C(=O)[C@@H](NC(=O)C(N)c3ccc(Cl)cc3)[C@H]2SC1(C)C` (stereo partly drawn) [Example 26, 1'-Acetoxyetyl 6-(α-amino-p-chlorophenylacetamido)penicillanate]: in data set [1], the metabolised at 0.5 h was determined as 15.6%. Also, in data set [7], the MIC came to 0.63 µg/mL (≈ 1.34 µM). Further, the degraded at 0.5 h in data set [2] was determined as 10.8%.

`CC(=O)OC(C)OC(=O)[C@@H]1N2C(=O)[C@@H](NC(=O)[C@H](N)c3ccc(O)cc3)[C@H]2SC1(C)C` (stereo partly drawn) [Example 27, 1'-Acetoxyethyl 6-(D-α-amino-p-hydroxyphenylacetamido)penicillanate]: the metabolised at 0.5 h in data set [1] is 6.8%. Further, in [7], the MIC turned out to be 0.25 µg/mL (≈ 0.554 µM). Further, in data set [2], the degraded at 0.5 h amounted to 2.5%.

In the case of `CCOC(=O)OC(C)OC(=O)[C@@H]1N2C(=O)[C@@H](NC(=O)[C@H](N)c3ccc(O)cc3)[C@H]2SC1(C)C` (stereo partly drawn) [Example 28, 1'-Ethoxycarbonyloxyethyl 6-(D-α-amino-p-hydroxyphenylacetamido)penicillanate], the metabolised at 0.5 h in data set [1] was 33.1%. Also, the MIC in data set [7] was 0.25 µg/mL (≈ 0.519 µM). The degraded at 0.5 h in [2] was 5%.

Regarding `CC(=O)OC(C)OC(=O)[C@@H]1N2C(=O)[C@@H](NC(=O)C(N)c3ccoc3)[C@H]2SC1(C)C` (stereo partly drawn) [Example 29, 1'-Acetoxyethyl 6-(α-amino-3-furylacetamido)penicillanate], the metabolised at 0.5 h in [1] was found to be 12.4%. In addition, the MIC in [7] was determined as 0.63 µg/mL (≈ 1.48 µM). In [2], the degraded at 0.5 h is 3.5%.
